From patent US20160047819A1, “METHOD FOR DIAGNOSING VAGINAL INFECTIONS” (priority 2013, published 2016)

Test system: vaginal proteome (human proteins in vaginal fluid)
Experiment: MS/MS proteomic analysis of vaginal fluid pools, BV-affected women before (BV) and after rifaximin/placebo treatment: human proteins
Assay type: in vivo
Experimental: Proteomic analysis was performed on 9 pools of vaginal isolates, grouped according to the status of the BV infection: • H pool (from 41 healthy women); BV pool (from 39 BV-affected women); • A-R pool (from 2 women who were in remission after rifaximin treatment-group A); • A-N pool (from 8 women who were not in remission after rifaximin treatment-group A); • B-R pool (from 5 women who were in remission after rifaximin treatment-group B); • B-N pool (from 5 women who were not in remission after rifaximin treatment-group B); • C-R pool (from 4 women who were in remission after rifaximin treatment-group C); • C-N (from 5 women who were not in remission after rifaximin treatment-group C); • D-N (from 10 women who were not in remission after placebo treatment-group D). Scheme of the vaginal fluids collected for testing the diagnostic method is represented in FIG. 1.
In these figures are reported the peptides in the fractionated pools of healthy women, women affected by BV and peptides of women treated with rifaximin. The treatment with rifaximin was at dosage of 100 mg/day for 5 days; (remission, A-R; no remission, A-N), 25 mg/5 days (remission, B-R; no remission, B-N), 100 mg/2 days (remission, C-R; no remission, C-N), and placebo for 5 days (D-N). Two types of comparisons were carried out: (i) between fractionated pools of proteins from vaginal fluid of healthy women (HF) versus fractionated pool of proteins from vaginal fluid of women affected by bacterial vaginosis (BVF); (ii) between whole pools of proteins from vaginal fluid of women affected by BV treated by administering different doses of rifaximin or placebo before (BV) and after (A-R, A-N, B-R, B-N, C-R, C-N, D-N) treatment. Fractioned pools of proteins are obtained, e.g., by separating the proteins by separation on membrane filtration with different membrane porosity, prior to MS/MS analysis.
Nine volumes of acetone: HCl (10:1) were added to the supernatant of the vaginal rinsing and proteins were precipitated by centrifuging at 12000 g for 10 min. The protein pellet was dissolved in 1 mL of 70% ethanol and the sample was spun at 12000 g for 10 min. One mL of acetone was added and the proteins were further precipitated by centrifugation at 12000 g for 5 min. After removing supernatant, pellet was dried by SpeedVac concentrator (Thermo Savant ISS110, Thermo Fisher Scientific, Waltham, Mass.) and then stored at −20° C.
Protein extract was quantified using the 2-D Quant Kit (GE Healthcare, Uppsala, Sweden) according to the manufacturer's instructions.
Patients who were diagnosed for BV at the study visit V1 were included in a multicentre, double-blind, randomised, placebo-controlled study (EudraCT: 2009-011826-32), that was performed to compare the efficacy of different doses of rifaximin vaginal tablets versus placebo for the treatment of BV. The patients underwent a randomisation visit and were distributed into 4 treatment groups: group A received 100 mg rifaximin vaginal tablet once daily for 5 days (n=10), group B received 25 mg rifaximin vaginal tablet once daily for 5 days (n=10), group C received 100 mg rifaximin vaginal tablet once daily for the first 2 days and placebo vaginal tablet for the remaining 3 days (n=9), group D received placebo vaginal tablet once daily for 5 days (n=10). Study medication was administered intra-vaginally at bedtime. After 7 to 10 days from the end of the therapy a follow-up visit (V3) was performed. Remission was evaluated at V3 according to Amsel's criteria (<3) and Gram stain Nugent score (≦3) (Table 1).
Standardized vaginal rinsings with 2 mL of saline were collected for analysis at V1 and V3 by flushing and re-aspirating the fluid through a 22 Gauge needle in the left, central and right upper vaginal vaults. The vaginal rinsings were subsequently stored at −80° C. until use.
MS/MS analysis was carried out for H and BV pools and for the whole BV, A-R, A-N, B-R, B-N, C-R, C-N and D-N pools containing 50 μg of protein each. […]

For CO[C@H]1/C=C/O[C@@]2(C)Oc3c(C)c(O)c4c(O)c(c5c(nc6cc(C)ccn65)c4c3C2=O)NC(=O)/C(C)=C\C=C\[C@H](C)[C@H](O)[C@@H](C)[C@@H](O)[C@@H](C)[C@H](OC(C)=O)[C@@H]1C [rifaximin], the “Ratio X/H Zyxin (Q15942)” value (pool A-R after treatment) was −3.2, the “Ratio X/H Sciellin (O95171)” value (pool B-N after treatment) was 0.0 and the “Ratio X/H Semenogelin-2 (Q02383)” value (pool B-N after treatment) was −2.3. For the same compound, the “Ratio X/H Serine protease 27 (Q9BQR3)” value (pool B-N after treatment) was 0.0, the “Ratio X/H Serine/threonine-protein kinase ULK1 (O75385)” value (pool B-N after treatment) was 0.0 and the “Ratio X/H Serotransferrin (P02787)” value (pool B-N after treatment) was 0.0. The “Ratio X/H Serpin B3 (P29508)” value (pool B-N after treatment) was 1.8, the “Ratio X/H Serpin B4 (P48594)” value (pool B-N after treatment) was 1.5 and the “Ratio X/H Serpin B5 (P36952)” value (pool B-N after treatment) was 0.0. The “Ratio X/H Serpin B6 (P35237)” value (pool B-N after treatment) was 0.0, the “Ratio X/H Serpin B9 (P50453)” value (pool B-N after treatment) was 0.0 and the “Ratio X/H Serpin B12 (Q96P63)” value (pool B-N after treatment) was −1.8. For the same compound, the “Ratio X/H Serpin B13 (Q9UIV8)” value (pool B-N after treatment) was 1.5, the “Ratio X/H Serum albumin (P02768)” value (pool B-N after treatment) was 0.0 and the “Ratio X/H Serum paraoxonase/arylesterase 1 (P27169)” value (pool B-N after treatment) was 1.7. For the same compound, the “Ratio X/H Small proline-rich protein 3 (Q9UBC9)” value (pool B-N after treatment) was 0.0, the “Ratio X/H Stanniocalcin-1 (P52823)” value (pool B-N after treatment) was 1.7 and the “Ratio X/H Sulfhydryl oxidase 1 (O00391)” value (pool B-N after treatment) was 0.0. For the same compound, the “Ratio X/H Superoxide dismutase [Cu—Zn] (P00441)” value (pool B-N after treatment) was 0.0, the “Ratio X/H Suprabasin (Q6UWP8)” value (pool B-N after treatment) was 7.6 and the “Ratio X/H Syntenin-1 (O00560)” value (pool B-N after treatment) was 2.6. The “Ratio X/H Talin-1 (Q9Y490)” value (pool B-N after treatment) was 0.0, the “Ratio X/H Tctex1 domain-containing protein 2 (Q8WW35)” value (pool B-N after treatment) was −25.1 and the “Ratio X/H Teneurin-3 (Q9P273)” value (pool B-N after treatment) was 12.3. For the same compound, the “Ratio X/H Thioredoxin (P10599)” value (pool B-N after treatment) was 1.5, the “Ratio X/H Transaldolase (P37837)” value (pool B-N after treatment) was 1.6 and the “Ratio X/H Transmembrane protease serine 11D (O60235)” value (pool B-N after treatment) was −1.6. The “Ratio X/H Transthyretin (P02766)” value (pool B-N after treatment) was 0.0, the “Ratio X/H Tumor protein D54 (O43399)” value (pool B-N after treatment) was 0.0 and the “Ratio X/H UTP--glucose-1-phosphate uridylyltransferase (Q16851)” value (pool B-N after treatment) was 0.0. For the same compound, the “Ratio X/H UV excision repair protein RAD23 homolog B (P54727)” value (pool B-N after treatment) was −1.6, the “Ratio X/H Versican core protein (P13611)” value (pool B-N after treatment) was −1.7 and the “Ratio X/H Vinculin (P18206)” value (pool B-N after treatment) was 1.5. For the same compound, the “Ratio X/H Vitamin D-binding protein (P02774)” value (pool B-N after treatment) was −2.0, the “Ratio X/H Werner syndrome ATP-dependent helicase (Q14191)” value (pool B-N after treatment) was 131.2 and the “Ratio X/H Zinc finger protein 185 (O15231)” value (pool B-N after treatment) was 0.0. The “Ratio X/H Zinc finger protein 335 (Q9H4Z2)” value (pool B-N after treatment) was 0.0, the “Ratio X/H Zinc-alpha-2-glycoprotein (P25311)” value (pool B-N after treatment) was 0.0 and the “Ratio X/H Zyxin (Q15942)” value (pool B-N after treatment) was 0.0. For the same compound, the “Ratio X/H Sciellin (O95171)” value (pool B-R after treatment) was 0.0, the “Ratio X/H Semenogelin-2 (Q02383)” value (pool B-R after treatment) was 5.9 and the “Ratio X/H Serine protease 27 (Q9BQR3)” value (pool B-R after treatment) was −2.3. The “Ratio X/H Serine/threonine-protein kinase ULK1 (O75385)” value (pool B-R after treatment) was −4.4, the “Ratio X/H Serotransferrin (P02787)” value (pool B-R after treatment) was −3.9 and the “Ratio X/H Serpin B3 (P29508)” value (pool B-R after treatment) was 4.3. The “Ratio X/H Serpin B4 (P48594)” value (pool B-R after treatment) was 0.0, the “Ratio X/H Serpin B5 (P36952)” value (pool B-R after treatment) was −4.7 and the “Ratio X/H Serpin B6 (P35237)” value (pool B-R after treatment) was 0.0. The “Ratio X/H Serpin B9 (P50453)” value (pool B-R after treatment) was −5.6, the “Ratio X/H Serpin B12 (Q96P63)” value (pool B-R after treatment) was −1.9 and the “Ratio X/H Serpin B13 (Q9UIV8)” value (pool B-R after treatment) was 0.0. For the same compound, the “Ratio X/H Serum albumin (P02768)” value (pool B-R after treatment) was −13.2, the “Ratio X/H Serum paraoxonase/arylesterase 1 (P27169)” value (pool B-R after treatment) was 0.0 and the “Ratio X/H Small proline-rich protein 3 (Q9UBC9)” value (pool B-R after treatment) was 6.6. The “Ratio X/H Stanniocalcin-1 (P52823)” value (pool B-R after treatment) was 113.1, the “Ratio X/H Sulfhydryl oxidase 1 (O00391)” value (pool B-R after treatment) was 1.6 and the “Ratio X/H Superoxide dismutase [Cu—Zn] (P00441)” value (pool B-R after treatment) was −1.5. For the same compound, the “Ratio X/H Suprabasin (Q6UWP8)” value (pool B-R after treatment) was 15.1, the “Ratio X/H Syntenin-1 (O00560)” value (pool B-R after treatment) was −3.1 and the “Ratio X/H Talin-1 (Q9Y490)” value (pool B-R after treatment) was −1.6. For the same compound, the “Ratio X/H Tctex1 domain-containing protein 2 (Q8WW35)” value (pool B-R after treatment) was 4.2, the “Ratio X/H Teneurin-3 (Q9P273)” value (pool B-R after treatment) was −2.3 and the “Ratio X/H Thioredoxin (P10599)” value (pool B-R after treatment) was 3.1. For the same compound, the “Ratio X/H Transaldolase (P37837)” value (pool B-R after treatment) was −1.7, the “Ratio X/H Transmembrane protease serine 11D (O60235)” value (pool B-R after treatment) was 2.6 and the “Ratio X/H Transthyretin (P02766)” value (pool B-R after treatment) was −4.7. For the same compound, the “Ratio X/H Tumor protein D54 (O43399)” value (pool B-R after treatment) was 2.2, the “Ratio X/H UTP--glucose-1-phosphate uridylyltransferase (Q16851)” value (pool B-R after treatment) was 0.0 and the “Ratio X/H UV excision repair protein RAD23 homolog B (P54727)” value (pool B-R after treatment) was −2.2. For the same compound, the “Ratio X/H Uronyl 2-sulfotransferase (Q9Y2C2)” value (pool B-R after treatment) was 2.1, the “Ratio X/H Versican core protein (P13611)” value (pool B-R after treatment) was 2.6 and the “Ratio X/H Vinculin (P18206)” value (pool B-R after treatment) was 0.0. The “Ratio X/H Vitamin D-binding protein (P02774)” value (pool B-R after treatment) was −17.8, the “Ratio X/H Werner syndrome ATP-dependent helicase (Q14191)” value (pool B-R after treatment) was 750.5 and the “Ratio X/H Zinc finger protein 185 (O15231)” value (pool B-R after treatment) was 5.8. For the same compound, the “Ratio X/H Zinc finger protein 335 (Q9H4Z2)” value (pool B-R after treatment) was −1.6, the “Ratio X/H Zinc-alpha-2-glycoprotein (P25311)” value (pool B-R after treatment) was −9.4 and the “Ratio X/H Zyxin (Q15942)” value (pool B-R after treatment) was −5.1.
